Experimental data as given in PubChem BioAssay (NCI).
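96-well plates; 48 h exposure; 5 concentrations. Endpoints by linear interpolation between flanking doses. Not reached: highest tested concentration assigned. GI50 is the concentration that inhibits growth by half. TGI: concentration producing complete growth inhibition.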

Columns and labels:
Assay in all cases: growth of human tumour cells (NCI), 48 h
A498 renal = system: A498 renal
CCRF-CEM leukemia = system: CCRF-CEM leukemia
HL-60(TB) leukemia = system: HL-60(TB) leukemia
HOP-92 NSCLC = system: HOP-92 NSCLC
LOX IMVI melanoma = system: LOX IMVI melanoma
M14 melanoma = system: M14 melanoma
OVCAR-3 ovarian = system: OVCAR-3 ovarian
SF-295 CNS = system: SF-295 CNS
SK-MEL-28 melanoma = system: SK-MEL-28 melanoma
COLO 205 colon = system: COLO 205 colon
SNB-78 CNS = system: SNB-78 CNS

Q: For Cc1ccc(S(=O)(=O)OCC(=O)O)cc1, which TGI (A498 renal) is on record?
A: Its TGI is > 100 µM.

Q: And the TGI (CCRF-CEM leukemia)?
A: Its TGI is > 100 µM.

Q: And the TGI (HL-60(TB) leukemia)?
A: The TGI was > 100 µM.

Q: What about the TGI (HOP-92 NSCLC) of the same compound?
A: Its TGI is > 100 µM.

Q: What about the TGI (LOX IMVI melanoma) of the same compound?
A: Its TGI is > 100 µM.

Q: What about the TGI (M14 melanoma) of the same compound?
A: The TGI was > 100 µM.

Q: And the TGI (OVCAR-3 ovarian)?
A: The TGI was > 100 µM.

Q: And the TGI (SF-295 CNS)?
A: Its TGI is > 100 µM.

Q: What about the TGI (SK-MEL-28 melanoma) of the same compound?
A: The TGI was > 100 µM.

Q: For CCCCCC(=O)NC(=S)Nc1nn[nH]n1, which TGI (A498 renal) is on record?
A: Its TGI is > 100 µM.

Q: And the TGI (CCRF-CEM leukemia)?
A: Its TGI is > 100 µM.

Q: What about the TGI (COLO 205 colon) of the same compound?
A: Its TGI is > 100 µM.

Q: And the TGI (HL-60(TB) leukemia)?
A: Its TGI is > 100 µM.

Q: And the TGI (HOP-92 NSCLC)?
A: Its TGI is > 100 µM.

Q: What about the TGI (LOX IMVI melanoma) of the same compound?
A: The TGI was > 100 µM.

Q: And the TGI (M14 melanoma)?
A: The TGI was > 100 µM.

Q: And the TGI (OVCAR-3 ovarian)?
A: Its TGI is > 100 µM.

Q: What about the TGI (SF-295 CNS) of the same compound?
A: Its TGI is > 100 µM.

Q: And the TGI (SK-MEL-28 melanoma)?
A: Its TGI is > 100 µM.

Q: What does the source list for COc1cc(Nc2c3ccccc3nc3ccccc23)ccc1NS(C)(=O)=O?
A: TGI (A498 renal): 19.6 µM; TGI (CCRF-CEM leukemia): > 100 µM; TGI (COLO 205 colon): 16.1 µM; TGI (HL-60(TB) leukemia): 30.1 µM; TGI (LOX IMVI melanoma): > 100 µM; TGI (M14 melanoma): 13.5 µM; TGI (SF-295 CNS): 15.2 µM; TGI (SK-MEL-28 melanoma): 20.4 µM; TGI (SNB-78 CNS): 47.1 µM

Q: Which results are given for N=C(N)c1ccc(N=Nc2c(O)ccc3c2[nH]c2ccccc23)cc1?
A: TGI (A498 renal): > 100 µM; TGI (COLO 205 colon): > 100 µM; TGI (HL-60(TB) leukemia): > 100 µM; TGI (HOP-92 NSCLC): > 100 µM; TGI (M14 melanoma): > 100 µM; TGI (OVCAR-3 ovarian): 5.67 µM; TGI (SF-295 CNS): > 84.4 µM; TGI (SK-MEL-28 melanoma): > 70.9 µM

Q: For COc1ccc(/C(Cl)=C(\C=O)c2ccc(F)cc2)cc1OC, which TGI (A498 renal) is on record?
A: The TGI was 54.8 µM.

Q: And the TGI (CCRF-CEM leukemia)?
A: The TGI was 48.6 µM.

Q: What about the TGI (COLO 205 colon) of the same compound?
A: Its TGI is 36.8 µM.

Q: What about the TGI (HL-60(TB) leukemia) of the same compound?
A: The TGI was 37.5 µM.

Q: And the TGI (HOP-92 NSCLC)?
A: The TGI was 29.3 µM.

Q: What about the TGI (LOX IMVI melanoma) of the same compound?
A: The TGI was 30.7 µM.

Q: And the TGI (M14 melanoma)?
A: Its TGI is 47.9 µM.

Q: And the TGI (OVCAR-3 ovarian)?
A: The TGI was 64.6 µM.

Q: And the TGI (SF-295 CNS)?
A: Its TGI is 63.2 µM.

Q: What about the TGI (SK-MEL-28 melanoma) of the same compound?
A: Its TGI is 68.4 µM.

Q: And the TGI (SNB-78 CNS)?
A: The TGI was 62.5 µM.

Q: How did the GI50 (A498 renal) turn out when C[C@]12CCc3nc(Nc4ccccc4)sc3C1=CC[C@@H]1[C@@H]2CC[C@]2(C)/C(=N/NC(N)=S)CC[C@@H]12 was run?
A: Its GI50 is 1390 nM.

Q: And the TGI (A498 renal)?
A: The TGI was > 100 µM.

Q: What about the GI50 (CCRF-CEM leukemia) of the same compound?
A: Its GI50 is 1980 nM.

Q: What about the TGI (CCRF-CEM leukemia) of the same compound?
A: The TGI was > 100 µM.

Q: What about the GI50 (COLO 205 colon) of the same compound?
A: The GI50 was 4.49 µM.

Q: What about the TGI (COLO 205 colon) of the same compound?
A: Its TGI is > 100 µM.

Q: And the GI50 (HL-60(TB) leukemia)?
A: Its GI50 is 3.03 µM.

Q: And the TGI (HL-60(TB) leukemia)?
A: Its TGI is 17 µM.

Q: And the GI50 (HOP-92 NSCLC)?
A: The GI50 was 5.59 µM.

Q: And the TGI (HOP-92 NSCLC)?
A: Its TGI is > 100 µM.

Q: What about the GI50 (M14 melanoma) of the same compound?
A: The GI50 was 3.71 µM.

Q: What about the TGI (M14 melanoma) of the same compound?
A: Its TGI is > 100 µM.

Q: And the GI50 (SF-295 CNS)?
A: The GI50 was 3.75 µM.

Q: What about the TGI (SF-295 CNS) of the same compound?
A: Its TGI is 72.3 µM.

Q: And the GI50 (SK-MEL-28 melanoma)?
A: Its GI50 is 4.49 µM.

Q: And the TGI (SK-MEL-28 melanoma)?
A: Its TGI is > 100 µM.

Q: Which TGI (A498 renal) does the source give for O=C(NC(Cc1ccc(I)cc1)C(=O)O)c1ccc(Br)cc1 (stereo not drawn) here?
A: The TGI was > 100 µM.

Q: And the TGI (CCRF-CEM leukemia)?
A: The TGI was > 100 µM.

Q: And the TGI (COLO 205 colon)?
A: The TGI was > 100 µM.

Q: And the TGI (HL-60(TB) leukemia)?
A: The TGI was > 100 µM.

Q: What about the TGI (HOP-92 NSCLC) of the same compound?
A: The TGI was > 100 µM.

Q: What about the TGI (LOX IMVI melanoma) of the same compound?
A: Its TGI is > 100 µM.

Q: What about the TGI (OVCAR-3 ovarian) of the same compound?
A: The TGI was > 100 µM.

Q: What about the TGI (SF-295 CNS) of the same compound?
A: The TGI was > 100 µM.

Q: And the TGI (SK-MEL-28 melanoma)?
A: The TGI was > 100 µM.

Q: What about the TGI (SNB-78 CNS) of the same compound?
A: The TGI was > 100 µM.

Q: Which TGI (A498 renal) does the source give for Nc1ccc(N=Nc2ccccc2)cc1 here?
A: Its TGI is > 100 µM.

Q: And the TGI (CCRF-CEM leukemia)?
A: Its TGI is > 100 µM.

Q: And the TGI (COLO 205 colon)?
A: Its TGI is > 100 µM.

Q: What about the TGI (HL-60(TB) leukemia) of the same compound?
A: Its TGI is > 100 µM.

Q: What about the TGI (HOP-92 NSCLC) of the same compound?
A: Its TGI is > 100 µM.

Q: What about the TGI (LOX IMVI melanoma) of the same compound?
A: Its TGI is > 100 µM.

Q: What about the TGI (M14 melanoma) of the same compound?
A: The TGI was > 100 µM.

Q: And the TGI (OVCAR-3 ovarian)?
A: The TGI was 69.1 µM.

Q: And the TGI (SF-295 CNS)?
A: Its TGI is 57.1 µM.

Q: And the TGI (SK-MEL-28 melanoma)?
A: Its TGI is > 100 µM.

Q: What does the source list for COc1ccc(O)cc1?
A: TGI (A498 renal): > 100 µM; TGI (CCRF-CEM leukemia): > 100 µM; TGI (COLO 205 colon): > 100 µM; TGI (HL-60(TB) leukemia): > 100 µM; TGI (HOP-92 NSCLC): > 100 µM; TGI (LOX IMVI melanoma): > 100 µM; TGI (M14 melanoma): > 100 µM; TGI (OVCAR-3 ovarian): > 100 µM; TGI (SK-MEL-28 melanoma): > 100 µM; TGI (SNB-78 CNS): > 100 µM

Q: How did the TGI (A498 renal) turn out when Nc1ccc2[nH]c3c(-c4ccccc4)nccc3c2c1 was run?
A: The TGI was > 100 µM.

Q: What about the TGI (CCRF-CEM leukemia) of the same compound?
A: The TGI was > 100 µM.

Q: And the TGI (COLO 205 colon)?
A: The TGI was > 100 µM.

Q: And the TGI (HL-60(TB) leukemia)?
A: The TGI was 38.2 µM.

Q: What about the TGI (HOP-92 NSCLC) of the same compound?
A: The TGI was > 100 µM.

Q: And the TGI (LOX IMVI melanoma)?
A: The TGI was > 100 µM.

Q: And the TGI (OVCAR-3 ovarian)?
A: Its TGI is > 100 µM.

Q: What about the TGI (SF-295 CNS) of the same compound?
A: The TGI was > 100 µM.

Q: And the TGI (SK-MEL-28 melanoma)?
A: Its TGI is > 100 µM.

Q: What about the TGI (SNB-78 CNS) of the same compound?
A: The TGI was > 100 µM.

Q: How did the TGI (A498 renal) turn out when Cc1[nH]c(=O)[nH]c(=O)c1/C=C/C(=O)O was run?
A: The TGI was > 1000 µM.

Q: What about the TGI (CCRF-CEM leukemia) of the same compound?
A: The TGI was > 1000 µM.

Q: What about the TGI (COLO 205 colon) of the same compound?
A: Its TGI is > 1000 µM.

Q: And the TGI (HL-60(TB) leukemia)?
A: Its TGI is > 1000 µM.

Q: And the TGI (HOP-92 NSCLC)?
A: Its TGI is 62.6 µM.

Q: And the TGI (LOX IMVI melanoma)?
A: Its TGI is > 1000 µM.

Q: And the TGI (OVCAR-3 ovarian)?
A: Its TGI is > 1000 µM.

Q: And the TGI (SF-295 CNS)?
A: The TGI was > 1000 µM.

Q: And the TGI (SK-MEL-28 melanoma)?
A: Its TGI is > 1000 µM.

Q: And the TGI (SNB-78 CNS)?
A: Its TGI is > 1000 µM.
